Laboratory results taken from ChEMBL document CHEMBL1201862, “PubChem BioAssay data set” (2004).
The source made the active and inactive calls.

What was measured:
[1] = biological target: T1, Neuropeptide Y receptor type 1 (Homo sapiens, UniProt P25929); assay: Fluorescence-based counterscreen for agonists of NPY-Y2: cell-based high-throughput dose response assay for agonists of NPY-Y1.; assay type: functional
T1 sequence (P25929 whole entry): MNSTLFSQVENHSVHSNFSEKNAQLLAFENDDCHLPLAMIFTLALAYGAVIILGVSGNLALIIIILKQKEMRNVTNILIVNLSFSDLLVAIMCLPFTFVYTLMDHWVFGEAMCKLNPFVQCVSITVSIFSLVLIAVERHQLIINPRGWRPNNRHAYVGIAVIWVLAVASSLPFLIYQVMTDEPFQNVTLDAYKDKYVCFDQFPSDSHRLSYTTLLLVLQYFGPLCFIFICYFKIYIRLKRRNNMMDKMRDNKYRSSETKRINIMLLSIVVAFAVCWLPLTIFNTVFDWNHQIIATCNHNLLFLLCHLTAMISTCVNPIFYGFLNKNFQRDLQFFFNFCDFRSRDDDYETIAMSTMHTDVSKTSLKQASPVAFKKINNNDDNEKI

[2] = biological target: T2, Neuropeptide Y receptor type 2 (Homo sapiens, UniProt P49146); assay: Fluorescence-based cell-based high-throughput dose response assay for agonists of NPY-Y2. [Related pubchem assays: 1703 (Screening assay (CNGC inhibitors).), 1359 (Screening assay (NPY-Y2 potentiators or agonists).), 1304 (Screening assay (NPY-Y1 potentiators or agonists).), 1710 (Screening assay (NPY-Y2 agonists).), 1791 (Summary AID.)]; assay type: functional
T2 sequence (P49146 whole entry): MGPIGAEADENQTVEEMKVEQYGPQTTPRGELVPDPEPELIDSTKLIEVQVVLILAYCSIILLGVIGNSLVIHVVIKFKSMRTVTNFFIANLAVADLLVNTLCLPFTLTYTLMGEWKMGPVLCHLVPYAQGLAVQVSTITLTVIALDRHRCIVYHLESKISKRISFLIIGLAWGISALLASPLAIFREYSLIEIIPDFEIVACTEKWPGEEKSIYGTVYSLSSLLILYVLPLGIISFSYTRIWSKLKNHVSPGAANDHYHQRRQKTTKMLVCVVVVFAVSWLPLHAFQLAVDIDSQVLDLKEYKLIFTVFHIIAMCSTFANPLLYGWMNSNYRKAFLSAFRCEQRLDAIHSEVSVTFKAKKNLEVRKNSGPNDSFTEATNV

HEK293 = assay: Fluorescence-based counterscreen for potentiators or agonists of NPY-Y2: cell-based high-throughput dose response assay to identify inhibitors of cyclic nucleotide gated ion channel (CNGC) activity. In this assay, the parental HEK293 cell line transfected with a cyclic-nucleotide gated ion channel (CNGC)-based cAMP sensor is used to measure inhibition of isoproterenol-induced CNGC activity by test compound.; assay type: functional; conditions: Homo sapiens;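 note: stimulus is 1 µM isoproterenol at EC100 plus PDE inhibitor Ro 20-1724 at 25 µM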
[3] = biological target: Lysosomal acid glucosylceramidase (Homo sapiens, UniProt P04062); assay: Dose response cell-based high throughput screening assay to identify enhancers of beta-glucosidase activity. [Related pubchem assays: 784 ]; assay type: functional
Cytochrome P450 2D6 = Cytochrome P450 2D6 (Homo sapiens, UniProt P10635); assay: qHTS Assay for Inhibitors and Substrates of Cytochrome P450 2D6. [Related pubchem assays: 410 ]; assay type: ADME; conditions: read-out: Potency
Sequence of Cytochrome P450 2D6 (P10635 whole entry): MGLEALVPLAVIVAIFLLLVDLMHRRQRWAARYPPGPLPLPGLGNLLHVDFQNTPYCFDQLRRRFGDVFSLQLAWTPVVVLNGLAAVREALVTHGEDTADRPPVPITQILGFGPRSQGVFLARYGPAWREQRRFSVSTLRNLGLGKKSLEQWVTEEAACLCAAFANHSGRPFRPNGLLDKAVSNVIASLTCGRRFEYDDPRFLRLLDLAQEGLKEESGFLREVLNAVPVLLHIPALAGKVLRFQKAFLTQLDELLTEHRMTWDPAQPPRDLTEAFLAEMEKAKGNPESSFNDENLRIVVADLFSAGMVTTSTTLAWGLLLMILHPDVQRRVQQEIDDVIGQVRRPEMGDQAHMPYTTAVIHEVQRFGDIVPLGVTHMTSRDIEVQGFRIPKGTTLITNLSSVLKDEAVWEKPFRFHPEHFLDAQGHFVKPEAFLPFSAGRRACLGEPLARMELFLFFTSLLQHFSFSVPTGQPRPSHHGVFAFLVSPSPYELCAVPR

[4] = biological target: Polyadenylate-binding protein 1 (Homo sapiens, UniProt P11940); assay: PABP poly(A) RNA binding inhibitors, primary screen, biochemical, fluorescence polarization, uHTS (AID 2014)
[5] = biological target: Eukaryotic translation initiation factor 4H (Homo sapiens, UniProt Q15056); assay: human eIF4H binding inhibitors, primary screen, translation initiation inhibitor project, biochemical, uHTS, fluorescence polarization (AID 2012)
Cytochrome P450 3A4 = Cytochrome P450 3A4 (Homo sapiens, UniProt P08684);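 note: CYP3A4 tested as one member of a cytochrome P450 panel screen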
Sequence of Cytochrome P450 3A4 (P08684 whole entry): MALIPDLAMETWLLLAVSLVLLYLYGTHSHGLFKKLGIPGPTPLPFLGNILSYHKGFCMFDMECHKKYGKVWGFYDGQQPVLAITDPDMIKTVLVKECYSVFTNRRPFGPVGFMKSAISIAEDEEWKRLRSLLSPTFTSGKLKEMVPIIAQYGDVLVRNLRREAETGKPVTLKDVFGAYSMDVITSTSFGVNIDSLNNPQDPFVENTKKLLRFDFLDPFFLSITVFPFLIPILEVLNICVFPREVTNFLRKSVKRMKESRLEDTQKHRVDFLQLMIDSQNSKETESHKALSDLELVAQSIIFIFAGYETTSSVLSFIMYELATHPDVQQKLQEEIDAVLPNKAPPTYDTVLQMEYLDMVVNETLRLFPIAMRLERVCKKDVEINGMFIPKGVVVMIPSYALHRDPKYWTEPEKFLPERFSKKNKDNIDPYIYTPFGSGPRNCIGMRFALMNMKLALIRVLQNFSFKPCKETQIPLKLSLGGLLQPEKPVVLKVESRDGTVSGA

Cytochrome P450 1A2 = biological target: T3, Cytochrome P450 1A2 (Homo sapiens, UniProt P05177);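 note: PubChem cytochrome P450 panel assay, CYP1A2 panel member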
T3 sequence (P05177 whole entry): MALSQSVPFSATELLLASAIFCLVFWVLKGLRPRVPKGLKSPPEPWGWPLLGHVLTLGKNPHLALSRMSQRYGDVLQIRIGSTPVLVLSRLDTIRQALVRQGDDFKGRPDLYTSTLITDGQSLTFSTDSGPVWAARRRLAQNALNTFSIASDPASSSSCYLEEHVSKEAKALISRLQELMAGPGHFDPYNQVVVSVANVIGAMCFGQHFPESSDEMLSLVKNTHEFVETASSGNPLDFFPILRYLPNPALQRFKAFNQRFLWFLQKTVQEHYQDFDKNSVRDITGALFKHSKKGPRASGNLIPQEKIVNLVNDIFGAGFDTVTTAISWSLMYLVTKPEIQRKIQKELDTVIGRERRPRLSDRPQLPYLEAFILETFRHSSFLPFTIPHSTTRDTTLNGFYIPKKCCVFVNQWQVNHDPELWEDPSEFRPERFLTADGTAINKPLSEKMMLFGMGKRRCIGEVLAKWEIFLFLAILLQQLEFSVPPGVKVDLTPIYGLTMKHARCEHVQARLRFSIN

NS3 = NS3 (Hepatitis C virus, UniProt A3EZJ3); assay: PubChem AID 2173; parameters: species or system Hepacivirus hominis
[6] = cytotoxicity in HEK-293T cells, dose response, cytotoxicity control for BCR NF-kB inhibitor project, luminescence, B-cell screen hits (AID 489021); assay type: functional, cell-based;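 note: HEK-293T cells carrying an NF-kB luciferase reporter; cells exposed to compound for about 14 hours before viability readout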
[7] = biological target: Serine/threonine-protein phosphatase (Homo sapiens, UniProt Q9BPW0); assay: Counterscreen for inhibitors of PP1: fluorescence-based biochemical high throughput dose response assay to identify inhibitors of Protein Phosphatase 5 (PP5). [Related pubchem assays: 2034 (Summary (PP5 inhibitors)), 1987 (PP5 inhibitors in singlate), 2235 (PP1 inhibitors in singlate)]
Sequence of Serine/threonine-protein phosphatase (Q9BPW0 whole entry): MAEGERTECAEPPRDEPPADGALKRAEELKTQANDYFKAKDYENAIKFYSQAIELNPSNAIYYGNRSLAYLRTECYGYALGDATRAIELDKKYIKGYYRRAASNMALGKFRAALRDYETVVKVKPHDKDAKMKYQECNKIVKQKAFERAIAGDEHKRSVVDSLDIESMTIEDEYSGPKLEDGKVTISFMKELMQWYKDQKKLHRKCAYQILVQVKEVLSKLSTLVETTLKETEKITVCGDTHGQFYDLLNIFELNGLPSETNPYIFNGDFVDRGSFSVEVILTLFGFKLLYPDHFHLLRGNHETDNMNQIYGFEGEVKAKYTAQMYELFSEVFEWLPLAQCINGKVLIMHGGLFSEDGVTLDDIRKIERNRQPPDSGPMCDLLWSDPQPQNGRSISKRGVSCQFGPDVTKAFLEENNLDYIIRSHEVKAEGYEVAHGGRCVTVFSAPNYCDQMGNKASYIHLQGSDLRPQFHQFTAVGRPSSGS

[8] = biological target: Serine/threonine-protein phosphatase PP1-alpha catalytic subunit (Homo sapiens, UniProt P62136); assay: PP1 phosphatase inhibitors, dose response, biochemical, fluorescence (AID 2403);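 note: phosphatase turnover of OMFP into fluorescent 3-O-methylfluorescein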
[9] = biological target: T4, Neuropeptides B/W receptor type 1 (Homo sapiens, UniProt P48145); assay: Fluorescence-based dose response cell-based high throughput screening assay to identify antagonists of the G-protein coupled receptor 7 (GPR7). [Related pubchem assays: 1952 (Screening assay (GPR7 antagonists).), 1880 (Summary AID.)]; assay type: functional
T4 sequence (P48145 whole entry): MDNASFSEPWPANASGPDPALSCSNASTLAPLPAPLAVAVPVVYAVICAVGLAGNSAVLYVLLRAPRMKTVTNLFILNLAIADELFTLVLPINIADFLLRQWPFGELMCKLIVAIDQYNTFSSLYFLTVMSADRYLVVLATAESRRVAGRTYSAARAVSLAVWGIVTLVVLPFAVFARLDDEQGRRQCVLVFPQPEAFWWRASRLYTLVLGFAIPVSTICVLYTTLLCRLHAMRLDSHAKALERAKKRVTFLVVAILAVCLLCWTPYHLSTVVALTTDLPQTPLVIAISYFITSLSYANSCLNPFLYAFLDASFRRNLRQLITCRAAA

[10] = biological target: Melanin-concentrating hormone receptor 1 (Homo sapiens, UniProt Q99705); assay: Fluorescence-based counterscreen for antagonists of the G-protein coupled receptor 7 (GPR7): cell-based high throughput dose response assay to identify antagonists of the melanin-concentrating hormone receptor 1 (MCHR1).; assay type: functional
[11] = biological target: T5, Eukaryotic translation initiation factor 2-alpha kinase 3 (Homo sapiens, UniProt Q9NZJ5); assay: Counterscreen assay for PERK inhibitors: Dose response cell-based high throughput screening assay to measure inhibition of PERK at 6 hours. [Related pubchem assays: 1522, 1416 ]; assay type: functional
T5 sequence (Q9NZJ5 whole entry): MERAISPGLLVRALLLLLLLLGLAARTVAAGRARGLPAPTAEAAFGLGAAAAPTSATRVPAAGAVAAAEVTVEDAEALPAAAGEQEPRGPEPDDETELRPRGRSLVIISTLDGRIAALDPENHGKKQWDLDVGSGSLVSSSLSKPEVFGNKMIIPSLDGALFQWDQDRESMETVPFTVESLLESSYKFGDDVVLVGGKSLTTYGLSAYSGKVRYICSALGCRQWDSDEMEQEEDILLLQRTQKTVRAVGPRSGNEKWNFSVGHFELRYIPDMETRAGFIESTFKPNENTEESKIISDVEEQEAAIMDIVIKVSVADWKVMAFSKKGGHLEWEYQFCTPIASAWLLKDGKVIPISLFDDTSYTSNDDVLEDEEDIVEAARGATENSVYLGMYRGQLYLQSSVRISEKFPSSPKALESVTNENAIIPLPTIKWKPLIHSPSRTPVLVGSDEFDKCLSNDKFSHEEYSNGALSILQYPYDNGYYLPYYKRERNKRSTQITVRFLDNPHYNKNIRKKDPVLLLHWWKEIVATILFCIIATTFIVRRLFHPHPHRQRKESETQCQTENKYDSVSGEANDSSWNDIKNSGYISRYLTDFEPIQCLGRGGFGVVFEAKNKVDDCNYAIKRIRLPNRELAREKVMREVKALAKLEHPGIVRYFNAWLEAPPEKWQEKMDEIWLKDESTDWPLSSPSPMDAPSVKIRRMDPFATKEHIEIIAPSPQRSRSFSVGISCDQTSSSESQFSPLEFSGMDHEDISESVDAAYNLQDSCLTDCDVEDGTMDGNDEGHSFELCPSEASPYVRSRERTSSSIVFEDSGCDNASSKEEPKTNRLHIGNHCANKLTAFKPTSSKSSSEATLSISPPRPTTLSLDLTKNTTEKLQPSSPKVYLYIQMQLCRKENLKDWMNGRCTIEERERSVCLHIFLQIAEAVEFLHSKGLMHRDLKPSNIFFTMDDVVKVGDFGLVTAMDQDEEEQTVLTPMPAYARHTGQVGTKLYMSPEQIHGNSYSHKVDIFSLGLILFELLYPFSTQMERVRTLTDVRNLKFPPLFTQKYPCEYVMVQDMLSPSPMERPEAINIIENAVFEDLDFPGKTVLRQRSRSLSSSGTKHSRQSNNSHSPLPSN

[12] = biological target: T5, Eukaryotic translation initiation factor 2-alpha kinase 3; assay: Dose response cell-based high-throughput screening assay to measure PERK inhibition. [Related pubchem assays: 1416 ]; assay type: functional
X-box-binding protein 1 = X-box-binding protein 1 (Homo sapiens, UniProt P17861); assay type: functional, Cricetulus griseus;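 note: confirmatory dose-response counter-screen serving a CHOP assay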
Sequence of X-box-binding protein 1 (P17861 whole entry): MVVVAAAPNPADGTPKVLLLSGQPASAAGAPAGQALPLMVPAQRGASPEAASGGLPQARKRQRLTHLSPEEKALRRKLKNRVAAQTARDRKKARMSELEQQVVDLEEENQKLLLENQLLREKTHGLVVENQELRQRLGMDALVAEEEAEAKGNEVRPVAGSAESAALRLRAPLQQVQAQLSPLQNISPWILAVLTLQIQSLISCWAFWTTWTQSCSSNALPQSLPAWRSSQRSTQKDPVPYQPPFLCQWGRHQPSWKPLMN

[13] = biological target: Neurotensin receptor type 1 (Homo sapiens, UniProt P30989); assay type: functional;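 note: Image-based confirmatory dose-response assay measuring agonist activity at NTR1; NTR1-expressing U2OS osteosarcoma cells imaged for beta-arrestin GFP spot formation; agonist potency where compounds increase beta-arrestin recruitment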
[14] = growth suppression of beta-catenin-knockout colon cells, dose response, cell-based, HCT116, human colon tumor (AID 1045); assay type: functional;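 note: HCT116 colon tumor cells with beta catenin knocked out; cells exposed to compound for 60 hours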
[15] = growth suppression of PTEN-null colon cells, dose response, cell-based, HCT116 PTEN knockout (AID 1047); assay type: functional;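 note: HCT116 colon tumor cells with PTEN knocked out; cells exposed to compound for 60 hours before readout; potency for loss of cell viability measured by luminescence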
[16] = biological target: T6, Alkaline phosphatase, tissue-nonspecific isozyme (Homo sapiens, UniProt P05186)
T6 sequence (P05186 whole entry): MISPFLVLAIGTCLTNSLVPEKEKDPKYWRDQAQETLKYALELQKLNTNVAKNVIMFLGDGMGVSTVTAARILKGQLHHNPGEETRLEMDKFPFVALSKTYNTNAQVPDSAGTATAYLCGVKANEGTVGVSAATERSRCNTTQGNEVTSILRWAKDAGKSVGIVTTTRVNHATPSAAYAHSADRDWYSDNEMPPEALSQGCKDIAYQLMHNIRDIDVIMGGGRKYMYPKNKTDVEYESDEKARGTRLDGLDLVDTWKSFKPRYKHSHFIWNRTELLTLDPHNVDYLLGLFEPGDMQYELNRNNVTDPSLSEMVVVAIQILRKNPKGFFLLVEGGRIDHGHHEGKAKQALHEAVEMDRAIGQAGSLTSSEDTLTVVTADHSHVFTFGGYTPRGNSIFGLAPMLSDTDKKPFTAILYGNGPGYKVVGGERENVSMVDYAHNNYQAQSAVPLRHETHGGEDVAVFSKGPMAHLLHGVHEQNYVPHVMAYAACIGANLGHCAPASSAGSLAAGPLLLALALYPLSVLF

[17] = biological target: T7, Probable nicotinate-nucleotide adenylyltransferase (Staphylococcus aureus (strain N315), UniProt P65502); assay type: functional, Staphylococcus aureus subsp. aureus N315;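 for IC50 Mean: confirmatory dose-response retesting of NadD inhibitor hits first found in an ultra-high-throughput screen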
T7 sequence (P65502 whole entry): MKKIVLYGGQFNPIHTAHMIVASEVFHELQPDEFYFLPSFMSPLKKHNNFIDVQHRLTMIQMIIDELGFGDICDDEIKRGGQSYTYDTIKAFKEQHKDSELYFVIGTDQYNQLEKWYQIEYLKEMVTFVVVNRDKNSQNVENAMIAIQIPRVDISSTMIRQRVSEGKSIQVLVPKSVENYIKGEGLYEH

[18] = biological target: T7, Probable nicotinate-nucleotide adenylyltransferase; assay type: functional, Staphylococcus aureus subsp. aureus N315; conditions: read-out: IC50_Mean
[19] = biological target: Luciferin 4-monooxygenase (Photinus pyralis, UniProt P08659); assay: Counter Screen for Luciferase-based Assay Positives. [Related pubchem assays: 620, 618, 411 ]
Sequence of Luciferin 4-monooxygenase (P08659 whole entry): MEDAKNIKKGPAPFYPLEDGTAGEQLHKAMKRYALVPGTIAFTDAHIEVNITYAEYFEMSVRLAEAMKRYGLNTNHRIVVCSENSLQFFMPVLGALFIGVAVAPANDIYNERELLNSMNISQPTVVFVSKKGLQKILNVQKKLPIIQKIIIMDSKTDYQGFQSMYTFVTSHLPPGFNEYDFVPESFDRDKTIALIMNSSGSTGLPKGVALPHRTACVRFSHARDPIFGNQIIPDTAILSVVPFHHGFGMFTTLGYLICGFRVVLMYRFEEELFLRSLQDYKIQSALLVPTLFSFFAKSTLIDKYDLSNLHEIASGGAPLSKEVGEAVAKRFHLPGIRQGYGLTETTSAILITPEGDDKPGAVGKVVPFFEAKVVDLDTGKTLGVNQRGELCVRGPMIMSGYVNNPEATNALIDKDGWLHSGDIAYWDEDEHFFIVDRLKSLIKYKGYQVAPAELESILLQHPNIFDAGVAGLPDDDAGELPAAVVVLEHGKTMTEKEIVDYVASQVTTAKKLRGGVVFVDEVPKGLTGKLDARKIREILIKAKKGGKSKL

HT-1080 = assay: cytotoxicity in HT1080 fibrosarcoma cells, cell-based, fluorescence readout (AID 620); assay type: functional; conditions: Homo sapiens
[20] = biological target: Mothers against decapentaplegic homolog 3 (Homo sapiens, UniProt P84022); assay: Smad3 binding inhibitors, lysate ELISA, dose response, cell lysate, secondary confirmation, chemiluminescent ELISA, HEK293 lysate (AID 1058); assay type: functional
Wee1-like protein kinase = Wee1-like protein kinase (Homo sapiens, UniProt P30291); assay: G2/M cell cycle arrest in HeLa, late-stage follow-up, mechanism study for Wee1 degradation inhibitor project, FACS, panel member Wee1 Degradation (AID 2088)
Sequence of Wee1-like protein kinase (P30291 whole entry): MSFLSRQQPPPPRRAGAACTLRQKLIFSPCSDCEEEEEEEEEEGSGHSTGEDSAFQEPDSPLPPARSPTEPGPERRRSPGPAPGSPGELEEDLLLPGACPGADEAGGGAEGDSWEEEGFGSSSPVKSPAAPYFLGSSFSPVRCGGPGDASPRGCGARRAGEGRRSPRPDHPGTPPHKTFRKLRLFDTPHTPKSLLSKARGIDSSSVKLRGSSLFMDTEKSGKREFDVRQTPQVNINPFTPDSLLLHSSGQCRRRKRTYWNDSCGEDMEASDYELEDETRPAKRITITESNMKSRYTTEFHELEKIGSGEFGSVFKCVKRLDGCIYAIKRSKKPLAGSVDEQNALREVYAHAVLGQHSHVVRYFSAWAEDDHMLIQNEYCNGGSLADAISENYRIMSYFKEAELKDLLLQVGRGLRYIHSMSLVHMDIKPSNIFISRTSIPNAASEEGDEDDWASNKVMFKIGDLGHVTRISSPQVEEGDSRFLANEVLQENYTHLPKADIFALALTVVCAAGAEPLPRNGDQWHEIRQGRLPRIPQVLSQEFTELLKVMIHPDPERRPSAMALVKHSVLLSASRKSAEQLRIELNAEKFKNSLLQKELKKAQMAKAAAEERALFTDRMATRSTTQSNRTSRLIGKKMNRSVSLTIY

[21] = biological target: G2/mitotic-specific cyclin-B1 (Homo sapiens, UniProt P14635); assay: G2/M cell cycle arrest in HeLa, late-stage follow-up, mechanism study for Wee1 degradation inhibitor project, FACS, panel member Cyclin B Degradation (AID 2088)
Sequence of G2/mitotic-specific cyclin-B1 (P14635 whole entry): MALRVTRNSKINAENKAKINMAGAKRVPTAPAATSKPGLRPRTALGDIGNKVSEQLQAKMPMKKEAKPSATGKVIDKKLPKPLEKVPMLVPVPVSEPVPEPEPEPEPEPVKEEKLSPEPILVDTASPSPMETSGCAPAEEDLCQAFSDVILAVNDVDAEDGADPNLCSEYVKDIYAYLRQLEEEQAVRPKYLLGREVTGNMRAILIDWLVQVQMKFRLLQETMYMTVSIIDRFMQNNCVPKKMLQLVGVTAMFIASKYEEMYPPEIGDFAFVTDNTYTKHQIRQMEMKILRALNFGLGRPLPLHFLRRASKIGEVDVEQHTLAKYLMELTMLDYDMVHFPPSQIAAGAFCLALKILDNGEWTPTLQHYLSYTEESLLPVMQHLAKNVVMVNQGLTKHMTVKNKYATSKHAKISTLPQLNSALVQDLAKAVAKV

[22] = biological target: Signal transducer and activator of transcription 3 (Homo sapiens, UniProt P40763); assay: STAT3 activators, late-stage profile, late-stage follow-up, cell-based, STAT1 reporter, BCL3 qPCR, cytotoxicity, panel member STAT3 Activation (AID 2049)

Nc1sc(-c2ccccc2)cc1-c1nnc(S)n1C1CCCCC1
EC50 [1]: 24.4 µM (not active) | EC50 [2]: 30.8 µM (not active) | EC50 (HEK293): 22.5 µM (not active)

CC1CCC(C(=O)NC(C(=O)NCCCN2CCOCC2)C(C)C)CC1 (stereo not given)
EC50 [3]: > 10 µM (not active)

CC(C)[C@@H]1OC(=O)\C=C/C=C\C=C/C=C\C=C/C[C@@H](O)[C@H](C)[C@@H](O)C[C@H](O)C[C@H](O)C[C@H](O)C[C@H](O)C[C@H](O)C[C@H](O)/C=C\[C@@H]1C
AC50 (Cytochrome P450 2D6): 0.316 µM (inconclusive)

Cc1cc(Br)ccc1SCC(=O)OCC(=O)NCc1ccco1
IC50 [4]: 9.37 µM (active) | IC50 [5]: 2.93 µM (active)

Cc1ccc(C)c(N2CCN(C(=O)c3ccc4nc(-c5ccco5)c(-c5ccco5)nc4c3)CC2)c1
AC50 (Cytochrome P450 3A4): 20 µM (inconclusive) | AC50 (Cytochrome P450 1A2): 15.8 µM (inconclusive) | IC50 (NS3): 14.2 µM (not active)

CCN(CC)CCOC(=O)c1ccc(NC(=O)COc2cc(=O)n(CC)c3ccccc23)cc1
IC50 [6]: > 80 µM (inactive)

O=C(O)c1cc(-c2ccc(Cl)c(Cl)c2)n(-c2ccc(F)cc2)n1
IC50 [7]: > 67 µM (not active) | IC50 [8]: 8.13 µM (active)

O=C(CSc1nnc(Cc2ccccc2)n1Cc1ccco1)NC1CCCC1
IC50 [9]: > 43.8 µM (not active) | IC50 [10]: > 43.8 µM (not active)

Cc1ccnc(NS(=O)(=O)c2cc(C(F)(F)F)ccc2Cl)c1
EC50 [11]: > 55.7 µM (not active) | EC50 [12]: > 55.7 µM (not active)

Cc1cc2c3c(c1)C(C)(c1ccccc1)CC(C)(C)N3C(=O)C21C(C#N)=C(N)OC2=C1C(=O)CC(C)(C)C2 (stereo not given)
Absolute IC50 (XBP1) (X-box-binding protein 1): 10 µM | EC50 [13]: 22 µM (inactive) | EC50 [14]: 20.4 µM (active) | EC50 [15]: 19.4 µM (active)

COCc1cc(O)n2nc(-c3ccsc3-n3c(C)ccc3C)cc2n1
EC50 [16]: > 100 µM (not active) | IC50 [17]: 13.3 µM (active) | IC50 [18]: 51.3 µM (active)

C=CCNc1ncnc2c1cnn2-c1ccc(OC)cc1
EC50 [19]: 0.33 µM (active) | EC50 (HT-1080): > 50 µM (not active)

COC(=O)c1ccccc1C1c2ccc(O)c(O)c2OC2=C(O)C(=O)C=CC21 (stereo not given)
IC50 [20]: > 50 µM (not active)

COC(=O)c1ccccc1NC(=O)CCCOc1cc(=O)n(C)c2ccccc12
EC50 (Wee1-like protein kinase): > 49.7 µM (inactive) | EC50 [21]: > 49.7 µM (inactive)

COc1cccc(NC(=O)c2cc(C3CC3)on2)c1
EC50 [22]: > 5.57 µM (inactive)
